Measured values published in US11104690B2, “Indazole derivatives useful as inhibitors of diacylglyceride O-acyltransferase 2” (Merck Sharp & Dohme Corp., priority 2016, dated 2021).

target: Human DGAT2 (Homo sapiens (Human), UniProt Q96PD7); assay: DGAT2 Enzymatic Activity Assay (triolein formation, LC/MS/MS); assay type: biochemical; settings: hDGAT2 Sf-9 membrane prep; 25 μM diolein, 10 μM oleoyl-CoA; room temperature
Protocol: Sf-9 insect cells were maintained in Grace's insect cell culture medium with 10% heated-inactivated fetal bovine serum, 1% Pluronic F-68 and 0.14 μg/m Kanamycine sulfate in Erlenmeyer flasks at 28° C. in a shaker incubator. After infection with untagged hDGAT2 baculovirus at multiplicity of infection (MOI) 0.1 for 48 hours, cells were harvested. Cell pellets were suspended in buffer containing 10 mM Tris-HC (pH 7.5), 1 mM EDTA (pH 8.0), 250 mM sucrose and Complete Protease Inhibitor Cocktail (Roche Diagnostics Corp., Indianapolis, Ill.), and sonicated on ice. Membrane fractions were isolated by ultracentrifugation (100,000×g pellet), resuspended in the same buffer, and frozen (−80° C.) for later use. The protein concentration was determined with the BCA Protein Assay kit (Pierce Biotechnology Inc., Rockford, Ill.). Expression of protein levels was analyzed by immunoblotting with goat polyclonal DGAT2 antibody C-15 and donkey anti-goat IgG HRP (Santa Cruz Biotechnology, Inc., Santa Cruz, Calif.) followed by detection with ECL reagent (GE Healthcare, Piscataway, N.J.).
LC/MS/MS analyses were performed using Thermal Fisher's LX4-TSQ Vantage system. This system consists of an Agilent binary high-performance liquid chromatography (HPLC) pumps and a TSQ Vantage triple quadrupole MS/MS instrument. For each sample, 2 μL samples from the top organic layer of in-plate liquid-liquid extraction were injected onto a Thermo Betabasic C4 column (2.1 mm×20 mm, 5 μm particle size). The samples were then eluted using the following conditions; mobile phase: MeOH/water with 0.1% ammonium format=92/8 (v/v), flow rate: 1 mL/min, temperature: 25 C. Data was acquired in positive mode using a heated electrospray ionization (HESI) interface. The operational parameters for the TSQ Vantage MS/MS instrument were a spray voltage of 3000 V, capillary temperature of 280° C., vaporizer temperature 400° C., shealth gas 60 arbitrary unit, Aux gas 40 arbitrary units, S-lens 113 and collision gas 0.16 Pascals. […] (SRM) chromatograms of triolein (Q1: 902.9>Q3:602.3) and internal standard ([…]) were collected for 40 sec. The peak area was integrated by Xcalibur Quan software. The ratio between the triolein generated in the reaction and spiked in internal standard was used to generate percentage inhibition and IC50 values. Compound percentage inhibition was calculated by the following formula: Inhibition %=1−[(compound response−low control)/(high control−low control)]×100%. Potent compounds were titrated and IC50 were calculated by 4 parameter sigmoidal curve fitting formula.
DGAT2 activity was determined by measuring the amount of enzymatic product triolein (1,2,3-Tri(cis-9-octadecenoyl)glycerol) using the membrane prep mentioned above. The assay was carried out in deep well 384 plates in a final volume of 40 μL at room temperature. The assay mixture contained the following: assay buffer (100 mM Tris.Cl, pH 7.0, 20 mM MgCl2, 5% ethanol), 25 μM of diolein, 10 μM of oleoyl-CoA and 10 ng/μL of DGAT2 membrane.

Sequence of Human DGAT2 (Q96PD7 whole entry): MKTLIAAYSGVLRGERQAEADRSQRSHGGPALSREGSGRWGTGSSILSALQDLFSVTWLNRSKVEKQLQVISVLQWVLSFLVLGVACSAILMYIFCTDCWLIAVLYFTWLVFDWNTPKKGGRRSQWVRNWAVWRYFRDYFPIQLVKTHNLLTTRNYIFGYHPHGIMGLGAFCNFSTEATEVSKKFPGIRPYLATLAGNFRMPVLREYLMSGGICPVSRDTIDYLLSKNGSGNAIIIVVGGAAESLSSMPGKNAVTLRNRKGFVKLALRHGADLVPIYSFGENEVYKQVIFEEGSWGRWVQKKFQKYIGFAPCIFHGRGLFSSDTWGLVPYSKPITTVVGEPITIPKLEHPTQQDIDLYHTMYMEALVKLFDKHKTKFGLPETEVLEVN

Compound | IC50 [nM]
COc1cccc(-c2nn(-c3ccc(F)cc3)c3cc(C(=O)NC4(C)CCS(=O)(=O)C4)ccc23)c1 (single isomer, unassigned) [Example 144-A, 1-(4-fluorophenyl)-3-(3-methoxyphenyl)-N-(3-methyl-1,1-dioxidotetrahydrothiophen-3-yl)-1H-indazole-6-carboxamide] | 5.8
CC(NC(=O)c1ccc2c(-c3ccccc3Cl)nn(-c3ccc(F)cc3)c2c1)c1cn(C(=O)OC(C)(C)C)cn1 (racemic) [Example 7, tert-butyl 4-[1-({[3-(2-chlorophenyl)-1-(4-fluorophenyl)-1H-indazol-6-yl]carbonyl}amino)ethyl]-1H-imidazole-1-carboxylate] | 164
COC(=O)c1ccc(-n2nc(-c3ccccc3Cl)c3ccc(C(=O)NC4(C)CCS(=O)(=O)C4)cc32)cc1 (racemic) [Example 187, methyl 4-{3-(2-chlorophenyl)-6-[(3-methyl-1,1-dioxidotetrahydrothiophen-3-yl)carbamoyl]-1H-indazol-1-yl}benzoate] | 644
O=C(NC(CO)(CO)CO)c1ccc2c(-c3ccccc3Cl)nn(-c3ccc(F)cc3)c2c1 [Example 85, 3-(2-chlorophenyl)-1-(4-fluorophenyl)-N-[2-hydroxy-1,1-bis(hydroxymethyl)ethyl]-1H-indazole-6-carboxamide] | 432
CC1(NC(=O)c2ccc3c(-c4cccc(C(C)(C)O)c4)nn(-c4ccc(F)cc4)c3c2)CCS(=O)(=O)C1 (racemic) [Example 150, 1-(4-fluorophenyl)-3-[3-(1-hydroxy-1-methylethyl)phenyl]-N-(3-methyl-1,1-dioxidotetrahydrothiophen-3-yl)-1H-indazole-6-carboxamide] | 311
COc1cc(-c2nn(-c3ccc(F)cc3)c3cc(C(=O)NC4CCS(=O)(=O)C4)ccc23)c(Cl)cn1 (single isomer, unassigned) [Example 137-A, 3-(5-chloro-2-methoxypyridin-4-yl)-N-(1,1-dioxidotetrahydrothiophen-3-yl)-1-(4-fluorophenyl)-1H-indazole-6-carboxamide] | 5.4
COC(=O)c1cccc(-n2nc(-c3ccccc3Cl)c3ccc(C(=O)NC4(C)CCS(=O)(=O)C4)cc32)c1 (racemic) [Example 180, methyl 3-{3-(2-chlorophenyl)-6-[(3-methyl-1,1-dioxidotetrahydrodioxidotetra-hydrodioxidotetrahydrodioxido-tetrahydro-thiophen-3-yl)carbamoyl]-1H-indazol-1-yl}benzoate] | 222
CC1(NC(=O)c2ccc3c(-c4ccccc4Cl)nn(-c4nnc(C(C)(C)C)s4)c3c2)CCS(=O)(=O)C1 (racemic) [Example 183, 1-(5-tert-butyl-1,3,4-thiadiazol-2-yl)-3-(2-chlorophenyl)-N-(3-methyl-1,1-dioxidotetrahydrothiophen-3-yl)-1H-indazole-6-carboxamide] | 460
O=C(N[C@H]1CCC[C@H]1O)c1ccc2c(-c3ccccc3Cl)nn(-c3ccc(F)cc3)c2c1 [Example 96, 3-(2-chlorophenyl)-1-(4-fluorophenyl)-N-[(1S,2R)-2-hydroxycyclopentyl]-1H-indazole-6-carboxamide] | 43
CC(C)(C)NC(=O)c1ccc2c(-c3ccccc3Cl)nn(-c3ccc(F)cc3)c2c1 [Example 15, N-tert-butyl-3-(2-chlorophenyl)-1-(4-fluorophenyl)-1H-indazole-6-carboxamide] | 77
O=C(N[C@H]1c2ccccc2OC[C@H]1O)c1ccc2c(-c3ccccc3Cl)nn(-c3ccc(F)cc3)c2c1 [Example 71, 3-(2-chlorophenyl)-1-(4-fluorophenyl)-N-[(3S,4S)-3-hydroxy-3,4-dihydro-2H-chromen-4-yl]-1H-indazole-6-carboxamide] | 526
O=C(NCC1(O)CCCCC1)c1ccc2c(-c3ccccc3Cl)nn(-c3ccc(F)cc3)c2c1 [Example 44, 3-(2-chlorophenyl)-1-(4-fluorophenyl)-N-[(1-hydroxycyclohexyl)methyl]-1H-indazole-6-carboxamide] | 176
O=C(N[C@H](CO)c1ccc(C(F)(F)F)nc1)c1ccc2c(-c3ccccc3Cl)nn(-c3ccc(F)cc3)c2c1 [Example 5, 3-(2-chlorophenyl)-1-(4-fluorophenyl)-N-{(1S)-2-hydroxy-1-[6-(trifluoromethyl)pyridin-3-yl]ethyl}-1H-indazole-6-carboxamide] | 45
Cc1nc(C(C)NC(=O)c2ccc3c(-c4ccccc4Cl)nn(-c4ccc(F)cc4)c3c2)no1 (racemic) [Example 41, 3-(2-chlorophenyl)-1-(4-fluorophenyl)-N-[1-(5-methyl-1,2,4-oxadiazol-3-yl)ethyl]-1H-indazole-6-carboxamide] | 519
O=C(N[C@@H]1CCC[C@H]1O)c1ccc2c(-c3ccccc3Cl)nn(-c3ccc(F)cc3)c2c1 [Example 94, 3-(2-chlorophenyl)-1-(4-fluorophenyl)-N-[(1R,2R)-2-hydroxycyclopentyl]-1H-indazole-6-carboxamide] | 772
CC1(NC(=O)c2ccc3c(-c4cc(C#N)ccc4F)nn(-c4ccc(F)cc4)c3c2)CCS(=O)(=O)C1 (single isomer, unassigned) [Example 151-A, 3-(5-cyano-2-fluorophenyl)-1-(4-fluorophenyl)-N-(3-methyl-1,1-dioxidotetrahydrothiophen-3-yl)-1H-indazole-6-carboxamide] | 4.5
CC1(NC(=O)c2ccc3c(-c4cccc(C5CC5)c4)nn(-c4ccc(F)cn4)c3c2)CCS(=O)(=O)C1 (single isomer, unassigned) [Example 125-B, 3-(3-cyclopropylphenyl)-1-(5-fluoropyridin-2-yl)-N-(3-methyl-1,1-dioxidotetrahydrothiophen-3-yl)-1H-indazole-6-carboxamide] | 3
O=C(NC1CCC(F)(F)C1)c1ccc2c(-c3ccccc3Cl)nn(-c3ccc(F)cc3)c2c1 (racemic) [Example 64, 3-(2-chlorophenyl)-N-(3,3-difluorocyclopentyl)-1-(4-fluorophenyl)-1H-indazole-6-carboxamide] | 132
CC1(NC(=O)c2ccc3c(-c4cccc(OC(F)F)c4)nn(-c4ccc(F)cn4)c3c2)CCS(=O)(=O)C1 (single isomer, unassigned) [Example 128-A, 3-[3-(difluoromethoxy)phenyl]-1-(5-fluoropyridin-2-yl)-N-(3-methyl-1,1-dioxidotetrahydrothiophen-3-yl)-1H-indazole-6-carboxamide] | 3.3
O=C(NC1(CO)CCC1)c1ccc2c(-c3ccccc3Cl)nn(-c3ccc(F)cc3)c2c1 [Example 88, 3-(2-chlorophenyl)-1-(4-fluorophenyl)-N-[1-(hydroxymethyl)cyclobutyl]-1H-indazole-6-carboxamide] | 15
O=C(NCC1(O)CC1)c1ccc2c(-c3ccccc3Cl)nn(-c3ccc(F)cc3)c2c1 [Example 114, 3-(2-chlorophenyl)-1-(4-fluorophenyl)-N-[(1-hydroxycyclopropyl)methyl]-1H-indazole-6-carboxamide] | 627
CC1(NC(=O)c2ccc3c(-c4ccccc4Cl)nn(-c4ncc(F)cn4)c3c2)CCS(=O)(=O)C1 (racemic) [Example 181, 3-(2-chlorophenyl)-1-(5-fluoropyrimidin-2-yl)-N-(3-methyl-1,1-dioxidotetradioxidotetradioxido-tetradioxidotetra-hydrothiophen-3-yl)-1H-indazole-6-carboxamide] | 391
CC1(NC(=O)c2ccc3c(-c4ccccc4Cl)nn(-c4ccc(F)cn4)c3c2)CCS(=O)(=O)C1 (single isomer, unassigned) [Example 172-B, 3-(2-chlorophenyl)-1-(5-fluoropyridin-2-yl)-N-(3-methyl-1,1-dioxidotetrahydrothiophen-3-yl)-1H-indazole-6-carboxamide] | 56
CC1(NC(=O)c2ccc3c(-c4ccccc4)nn(-c4ccc(F)cc4)c3c2)CCS(=O)(=O)C1 (single isomer, unassigned) [Example 162-A, 1-(4-fluorophenyl)-N-(3-methyl-1,1-dioxidotetrahydrothiophen-3-yl)-3-phenyl-1H-indazole-6-carboxamide] | 157
